From ChEMBL document CHEMBL5584244, “Discovery of novel pyrrolo[2,1-c][1,4]benzodiazepine-3,11-dione (PBD) derivatives as selective HDAC6 inhibitors for the efficient treatment of idiopathic pulmonary fibrosis (IPF) in vitro and in vivo” (Eur J Med Chem, 2024) come the findings set out here.

Each structure is given as a SMILES string. Active and inactive are the calls of the source. The rule behind the calls is not given here.

Data set [1] addresses T1, Protein deacetylase HDAC6 (Homo sapiens, UniProt Q9UBN7).
T1 sequence (Q9UBN7 whole entry): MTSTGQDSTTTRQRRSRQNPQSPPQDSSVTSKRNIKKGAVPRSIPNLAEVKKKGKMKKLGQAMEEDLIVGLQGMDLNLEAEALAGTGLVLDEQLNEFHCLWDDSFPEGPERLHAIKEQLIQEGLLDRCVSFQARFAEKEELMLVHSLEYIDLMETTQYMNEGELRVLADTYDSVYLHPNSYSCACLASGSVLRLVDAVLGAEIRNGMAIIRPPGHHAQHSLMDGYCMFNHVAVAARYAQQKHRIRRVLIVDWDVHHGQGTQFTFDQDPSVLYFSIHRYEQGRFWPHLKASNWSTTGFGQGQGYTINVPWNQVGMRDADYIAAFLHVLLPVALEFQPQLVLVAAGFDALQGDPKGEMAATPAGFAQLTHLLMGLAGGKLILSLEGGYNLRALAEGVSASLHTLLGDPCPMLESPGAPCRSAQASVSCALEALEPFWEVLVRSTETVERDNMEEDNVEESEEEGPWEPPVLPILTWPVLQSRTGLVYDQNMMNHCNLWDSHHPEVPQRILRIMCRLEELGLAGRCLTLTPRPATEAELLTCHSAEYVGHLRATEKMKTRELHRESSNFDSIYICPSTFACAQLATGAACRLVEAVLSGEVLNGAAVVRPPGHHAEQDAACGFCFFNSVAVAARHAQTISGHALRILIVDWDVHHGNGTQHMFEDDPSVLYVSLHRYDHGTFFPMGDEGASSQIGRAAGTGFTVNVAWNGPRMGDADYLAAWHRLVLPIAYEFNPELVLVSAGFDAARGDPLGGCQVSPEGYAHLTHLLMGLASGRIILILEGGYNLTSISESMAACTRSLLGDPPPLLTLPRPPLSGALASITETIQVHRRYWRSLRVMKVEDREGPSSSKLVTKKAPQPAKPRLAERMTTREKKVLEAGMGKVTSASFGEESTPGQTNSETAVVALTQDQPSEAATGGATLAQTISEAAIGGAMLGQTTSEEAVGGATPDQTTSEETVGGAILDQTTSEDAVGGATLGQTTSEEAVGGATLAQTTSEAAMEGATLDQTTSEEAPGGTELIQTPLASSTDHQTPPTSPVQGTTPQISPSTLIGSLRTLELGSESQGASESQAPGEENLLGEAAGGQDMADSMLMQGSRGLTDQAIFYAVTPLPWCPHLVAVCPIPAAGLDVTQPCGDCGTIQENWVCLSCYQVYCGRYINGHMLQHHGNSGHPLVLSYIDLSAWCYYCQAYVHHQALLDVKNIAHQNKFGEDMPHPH
Kind of data set: Inhibition of recombinant human full length HDAC6 using Boc-Lys (Ac)-AMC as substrate incubated for 120 mins by fluorescence analysis.

A further data set concerns the target Histone deacetylase 1 (Homo sapiens, UniProt Q13547). Kind of data set: Inhibition of C-terminal His6/Flag-tagged recombinant human full length HDAC1 using Boc-Lys (Ac)-AMC as substrate incubated for 120 mins by fluorescence analysis.
In another data set the target is T2, Histone deacetylase 11 (Homo sapiens, UniProt Q96DB2).
T2 sequence (Q96DB2 whole entry): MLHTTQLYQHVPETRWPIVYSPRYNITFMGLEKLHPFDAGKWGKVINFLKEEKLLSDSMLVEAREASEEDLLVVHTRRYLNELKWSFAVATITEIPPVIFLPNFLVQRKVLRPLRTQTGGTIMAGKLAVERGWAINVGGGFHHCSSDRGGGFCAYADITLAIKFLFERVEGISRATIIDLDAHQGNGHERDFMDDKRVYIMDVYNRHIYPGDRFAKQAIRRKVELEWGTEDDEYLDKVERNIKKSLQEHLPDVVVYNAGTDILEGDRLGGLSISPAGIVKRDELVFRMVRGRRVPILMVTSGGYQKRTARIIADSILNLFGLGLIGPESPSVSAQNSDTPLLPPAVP
Kind of data set: Inhibition of recombinant human full length HDAC11 using Boc-Lys (Tfa)-AMC as substrate incubated for 120 mins by fluorescence analysis.

The species named for the next data set is Homo sapiens. Kind of data set: Selectivity index, ratio IC50 for C-terminal His6/Flag-tagged recombinant human full length HDAC1 to IC50 for inhibition of recombinant human full length HDAC6.
For data set [2], the system named is HELF. The data set is described as follows: Antifibrotic activity against TGF-beta1-induced HELF cells assessed as reduction in viability after 48 hrs by MTT assay. The class given is functional, cell-based. Conditions: Homo sapiens, dose 2.5-10 µM.
A short description of data set [3]: Cytotoxicity against HELF cells assessed as reduction in viability at 1 to 300 uM after 48 hrs under without FBS condition by MTT assay. The class given is toxicity, cell-based. The conditions noted are these: human, dose 1-300 µM.
Data set [4] has as its target T3, Protein deacetylase HDAC6 (Homo sapiens) (UniProt Q9UBN7).
T3 sequence (whole entry): T1 sequence (Q9UBN7 whole entry)
Kind of data set: Inhibition of HDAC6 in TGF-beta1-induced HELF cells by fluorescence based microplate reader analysis. The class given is cell-based. Conditions: dose 2.5-10 µM.

Data set [5] concerns HELF. The data set is described as follows: Anti-pulmonary fibrosis activity against TGF-beta1-induced HELF cells assessed as reduction in COL1A1 protein expression incubated for 48 hrs by Western blot analysis. The class given is functional, cell-based. The conditions noted are these: Homo sapiens, dose 2.5-10 µM.
The test system of data set [6] is HELF. The data set is described as follows: Anti-pulmonary fibrosis activity against TGF-beta1-induced HELF cells assessed as reduction in alpha-SMA protein expression incubated for 48 hrs by Western blot analysis. The data set is classed as functional, cell-based. The conditions noted are these: Homo sapiens, dose 2.5-10 µM.
In data set [7] the target is Mothers against decapentaplegic homolog 2 (Homo sapiens) (UniProt Q15796). The data set is described as follows: Inhibition of TGF-beta1-induced Smad2 protein phosphorylation level in HELF cells incubated for 48 hrs by Western blot analysis. The class given is cell-based. Conditions: dose 2.5-10 µM.
The nature of data set [8]: Stability of compound in human plasma assessed as remaining parent compound at 2 uM incubated for 120 mins by LC-MS/MS analysis. Conditions: read-out: Stability. The data set is classed as ADME, cell-free.
Data set [9] is described as follows: Intrinsic clearance in human liver microsomes at 100 uM incubated upto 60 mins by LC-MS/MS analysis. The class given is ADME, Microsome. Conditions: read-out: CLH.
The subject of data set [10] is Mus musculus. Kind of data set: Anti-pulmonary fibrosis activity in bleomycin-induced C57BL/6 mouse model of pulmonary fibrosis assessed as recovering mental state at 50 to 100 mg/kg, ip for 3 weeks. The class given is functional, organism-based. Conditions: dose 50-100 mg/kg.
For data set [11], the system named is Mus musculus. Kind of data set: Anti-pulmonary fibrosis activity in bleomycin-induced C57BL/6 mouse model of pulmonary fibrosis assessed as decrease in disturbance of alveolar structure in lung at 50 to 100 mg/kg, ip for 3 weeks by H and E staining based fluorescence microscopic analysis. The class given is functional, organism-based. The conditions noted are these: dose 50-100 mg/kg.

The subject of data set [12] is Mus musculus. The data set is described as follows: Anti-pulmonary fibrosis activity in bleomycin-induced C57BL/6 mouse model of pulmonary fibrosis assessed as decrease in thickening of the alveolar wall in lung at 50 to 100 mg/kg, ip for 3 weeks by H and E staining based fluorescence microscopic analysis. The class given is functional, organism-based. The conditions noted are these: dose 50-100 mg/kg.

Data set [13] relates to Mus musculus. The data set is described as follows: Anti-pulmonary fibrosis activity in bleomycin-induced C57BL/6 mouse model of pulmonary fibrosis assessed as decrease in collagen level in lung at 50 to 100 mg/kg, ip for 3 weeks by Masson trichrome staining based microscopic analysis. Conditions: dose 50-100 mg/kg. The data set is classed as functional, organism-based.

The subject of data set [14] is Mus musculus. Kind of data set: Anti-pulmonary fibrosis activity in bleomycin-induced C57BL/6 mouse model of pulmonary fibrosis assessed as decrease in collapse of the alveolar cavity in lung at 50 to 100 mg/kg, ip for 3 weeks by Masson trichrome staining based microscopic analysis. The class given is functional, organism-based. The conditions noted are these: dose 50-100 mg/kg.

Data set [15] relates to Mus musculus. The data set is described as follows: Anti-pulmonary fibrosis activity in bleomycin-induced ip dosed C57BL/6 mouse model of pulmonary fibrosis assessed as inhibition of Smad3 protein phosphorylation level in lung at for 3 weeks by immunohistochemical analysis. The class given is functional, organism-based. The conditions noted are these: dose 50-100 mg/kg.

Chain of Histone deacetylase 1 (Q13547 whole entry): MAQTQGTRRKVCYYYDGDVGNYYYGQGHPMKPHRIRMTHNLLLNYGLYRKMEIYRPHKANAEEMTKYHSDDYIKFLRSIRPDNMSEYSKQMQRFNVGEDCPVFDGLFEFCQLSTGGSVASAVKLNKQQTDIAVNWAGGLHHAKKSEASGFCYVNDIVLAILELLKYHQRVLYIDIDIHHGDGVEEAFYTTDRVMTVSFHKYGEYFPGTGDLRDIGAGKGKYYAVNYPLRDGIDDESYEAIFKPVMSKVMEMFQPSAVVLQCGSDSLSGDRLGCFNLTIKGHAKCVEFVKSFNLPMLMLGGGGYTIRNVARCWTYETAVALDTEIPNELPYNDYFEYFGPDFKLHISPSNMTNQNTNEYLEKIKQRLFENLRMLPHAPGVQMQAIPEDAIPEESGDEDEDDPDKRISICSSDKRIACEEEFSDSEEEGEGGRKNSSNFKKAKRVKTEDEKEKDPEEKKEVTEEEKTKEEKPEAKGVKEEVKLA
Chain of Mothers against decapentaplegic homolog 2 (Homo sapiens) (Q15796 whole entry): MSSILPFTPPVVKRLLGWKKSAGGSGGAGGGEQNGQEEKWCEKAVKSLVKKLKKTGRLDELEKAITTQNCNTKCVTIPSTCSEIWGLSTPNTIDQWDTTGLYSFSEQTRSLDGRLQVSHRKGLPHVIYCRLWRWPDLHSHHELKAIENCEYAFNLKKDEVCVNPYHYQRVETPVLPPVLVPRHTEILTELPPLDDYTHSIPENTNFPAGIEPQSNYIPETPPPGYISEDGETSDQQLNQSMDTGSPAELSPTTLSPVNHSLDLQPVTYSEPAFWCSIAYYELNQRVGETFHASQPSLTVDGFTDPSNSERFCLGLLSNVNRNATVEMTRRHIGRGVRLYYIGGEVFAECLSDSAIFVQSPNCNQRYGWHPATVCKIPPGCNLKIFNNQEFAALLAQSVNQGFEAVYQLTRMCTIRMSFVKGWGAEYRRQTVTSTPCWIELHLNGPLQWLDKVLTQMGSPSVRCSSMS

Consider `CC(=O)O.O=C(NO)c1ccc(CN2C(=O)[C@@H]3CCCN3Cc3ccccc32)cc1`, for which the IC50 in [1] was 0.00897 µM; on Histone deacetylase 1 it was 0.878 µM; on Histone deacetylase 11, > 50 µM. The Ratio IC50 in the data set listed under Homo sapiens was determined as 97.9. Moreover, the Activity entry in the data set with HELF [2] was “Dose-Dependent Effect”; in [3], “Toxic”; in the data set with HELF [5] it was “Dose-Dependent Effect”; in the data set on HELF [6] it was “Dose-Dependent Effect”. Moreover, the inhibition entry (in data set [4]; in data set [7]; in the data set on Mus musculus [15]) was “Dose-Dependent Effect” in each case. For the same compound, in data set [8], the remaining at 2 h, 2 µM stood at 92.3%. In data set [9], the microsomal CLint at 100 µM was < 9.6 µL/min/mg. Also, the outcome in the data set on Mus musculus [10] and in the data set on Mus musculus [11] was Active. For the same compound, the result with Mus musculus [12], in the data set with Mus musculus [13] and with Mus musculus [14] was inactive.
